Experiment: Fluorescence spectra, absorbance and quantum yield (spectrofluorometer, integration sphere)
Type: physicochemical
Settings: CFD dyes
Method: Fluorescence spectra were recorded by a Horiba FluoroMax-4 spectrofluorometer. All polymer and small molecule samples were measured at a concentration of 2% w/w in 1,4-dioxane or DI water and a slit size of 1 nm by 1 nm unless otherwise specified. Quantum yields were also determined on the same spectrofluorometer by using a Quantum-φ integration sphere at the same concentration and slit size with the blank solvent as the reference. ^1H-NMR, ^13C-NMR were performed on a JNM ECS 300 spectrometer using DMSO-d6 or D2O as solvents. Attenuated total reflection Fourier transform infrared (ATR-FTIR) spectra were collected with a Bruker V70 spectrometer using BPLP films. A Shimadzu HPLC-MS system with a Phenomenex Kinetex 2.6u XB-C18 100 mm×2.9 mm column, a SPD M20A PDA detector and a RF-20AXS fluorescence detector (Ex. 360 nm and Em. 430 nm) was used to characterize the structures of fluorophores as well. The mobile phase was a gradient of DI water and acetonitrile with 0-6 min 2% acetonitrile, 6-12 min 2%-30% acetonitrile, and 12-15 min 2% acetonitrile. The flow rate was 0.15 ml/min. Electrospray ionization mass spectroscopy (ESI-MS) was performed with a positive voltage of 4.5 kV and negative mode voltage −4.0 kV and a CDL temperature of 200° C. The analysis of the degradation products of BPLPs were conducted by immersing BPLPs in 1M K2CO3 solution at 37° C. for 24 hours. After degradation, the solutions were neutralized by 1N HCl solution to pH 7 and characterized by HPLC-MS as described above.
Fluorescence spectra were recorded by a Horiba FluoroMax-4 spectrofluorometer. All samples were measured at a concentration corresponding to an optical density of 0.1 in water and a slit size of 1 nm by 1 nm unless specified. Quantum yields were also determined on same spectrofluorometer by using a Quantum-φ integration sphere at samples' maximum excitation wavelength and at an increment of 0.3 nm. Photostability studies were done by continuously exciting samples at their maximum excitation wavelength and monitoring at the maximum emission wavelength.
Fluorescence spectra were recorded on a Horiba FluoroMax-4 spectrofluorometer (Horiba Scientific, Edison N.J.). All polymer and samples were characterized at a concentration of 2 wt % in 1,4-dioxane and a slit size of 1 nm by 1 nm unless otherwise specified. The fluorescence properties of small molecule dyes were also measure in 2 wt % DI water solutions at same conditions as polymer solutions. BPLPs were also degraded in 1M K2CO3 solution at 37° C. for 24 hours and then neutralized with 1N HCl solution to pH7. The resulting degradation solutions were subject to further PL characterizations. Quantum yields were also determined on the same spectrofluorometer by using a Quantum-φ integration sphere (Horiba Scientific, Edison N.J.) at the same concentration and slit size with the blank solvent as the reference. Photostability of small molecules and polymers were determined by monitoring the emission intensity decay at their max. Excitation and emission wavelengths over 3 hours of continuous lumination in the spectrofluorometer.
Absorbance Spectra were recorded on Tecan Infinite M200 Pro UV-vis spectroscopy, and fluorescence spectra were recorded on Horiba FluoroMax-4 fluorospectroscopy at concentrations below 0.1 O.D. unless otherwise indicated. Quantum Yields were measured on the Quantum φ Integrating Sphere accessory to the FluoroMax-4, while lifetime measurements were determined through the Time-Correlation Single Photon Counting (TCSPC) accessory to the FluroMax-4. TCSPC was utilized in conjunction with NanoLED pulsed diode light source with peak excitation wavelength at 352 nm and at 10,000 counts peak preset. Emission was collected at the fluorescence λmax, unless otherwise indicated. For all pH-dependence experiments, sample pH was adjusted with sulfuric acid or sodium hydroxide. For all chloride-dependent quenching experiments, magnesium chloride hexahydrate (Sigma Aldrich) was used.

Row | Shifting (emission shifting with excitation wavelength) | SMILES
1 | Yes | NCCN1C(=O)C=C(C(=O)O)CC1=O [CA-EDA]
2 | Yes | O=C(O)CN1C(=O)C=C(C(=O)O)CC1=O [CA-Gly]

Same assay, conditions: Table III

Row | Φ (quantum yield) | λem (maximum emission wavelength) | λex (maximum excitation wavelength) | ϵ (extinction coefficiency) | SMILES
3 | 98.5% | 439 nm | 396 nm | 877.8 M⁻¹ cm⁻¹ | O=C(O)c1cc(=O)n2c(c1)sc1ccccc12 [CA-2-Aminothiolphenol]
4 | 8.8% | 430 nm | 356 nm | 6.3 M⁻¹ cm⁻¹ | CC(CC(=O)O)N1C(=O)C=C(C(=O)O)CC1=O (stereo not shown) [CA-3-Aminobutanoic Acid]
5 | 14.1% | 437 nm | 396 nm | 19.6 M⁻¹ cm⁻¹ | O=C(O)C1=CC(=O)N(c2ccc(S)cc2)C(=O)C1 [CA-4-Aminothiolphenol]
6 | 23.8% | 440 nm | 378 nm | 35.5 M⁻¹ cm⁻¹ | NC(=O)CC(C(=O)O)N1C(=O)C=C(C(=O)O)CC1=O (stereo not shown) [CA-Asparagine]
7 | 19.7% | 427 nm | 356 nm | 6.8 M⁻¹ cm⁻¹ | O=C(O)CC(C(=O)O)N1C(=O)C=C(C(=O)O)CC1=O (stereo not shown) [CA-Aspartic Acid]
8 | 15% | 430 nm | 367 nm | 11.6 M⁻¹ cm⁻¹ | NC(CSSCC(C(=O)O)N1C(=O)C=C(C(=O)O)CC1=O)C(=O)O (stereo not shown) [CA-Cystine]
9 | 9.2% | 440 nm | 377 nm | 828.3 M⁻¹ cm⁻¹ | NCCN1C(=O)C=C(C(=O)O)CC1=O [CA-EDA]
10 | 9.1% | 423 nm | 358 nm | 5.1 M⁻¹ cm⁻¹ | O=C(O)CCC(C(=O)O)N1C(=O)C=C(C(=O)O)CC1=O (stereo not shown) [CA-Glutamic Acid]
11 | 7.3% | 448 nm | 383 nm | 102.4 M⁻¹ cm⁻¹ | NC(=O)CCC(C(=O)O)N1C(=O)C=C(C(=O)O)CC1=O (stereo not shown) [CA-Glutamine]
12 | 39.0% | 434 nm | 357 nm | 12 M⁻¹ cm⁻¹ | O=C(O)CN1C(=O)C=C(C(=O)O)CC1=O [CA-Gly]
13 | 11.5% | 426 nm | 357 nm | 9.4 M⁻¹ cm⁻¹ | NCCCCCCN1C(=O)C=C(C(=O)O)CC1=O [CA-Hexamethylenediamine]
14 | 70.8% | 445 nm | 375 nm | 109.2 M⁻¹ cm⁻¹ | O=C(O)c1cc2n(c(=O)c1)C(C(=O)O)CCS2 (stereo not shown) [CA-Homocysteine]
15 | 17.2% | 430 nm | 357 nm | 5.6 M⁻¹ cm⁻¹ | CCC(C)C(C(=O)O)N1C(=O)C=C(C(=O)O)CC1=O (stereo not shown) [CA-Isoleucine]
16 | 8.8% | 423 nm | 359 nm | 6.2 M⁻¹ cm⁻¹ | CC(C)CC(C(=O)O)N1C(=O)C=C(C(=O)O)CC1=O (stereo not shown) [CA-Leucine]
17 | 8.6% | 431 nm | 359 nm | 11.4 M⁻¹ cm⁻¹ | NCCCCC(C(=O)O)N1C(=O)C=C(C(=O)O)CC1=O (stereo not shown) [CA-Lysine]
18 | 10.5% | 424 nm | 362 nm | 5.3 M⁻¹ cm⁻¹ | CSCCC(C(=O)O)N1C(=O)C=C(C(=O)O)CC1=O (stereo not shown) [CA-Methionine]
19 | 80.6% | 432 nm | 369 nm | 3180 M⁻¹ cm⁻¹ | CC1(C)Sc2cc(C(=O)O)cc(=O)n2C1C(=O)O (stereo not shown) [CA-Penicillamine]
20 | 12.7% | 423 nm | 358 nm | 7.8 M⁻¹ cm⁻¹ | O=C(O)C1=CC(=O)N(C(Cc2ccccc2)C(=O)O)C(=O)C1 (stereo not shown) [CA-Phenylalanine]
21 | 4.2% | 440 nm | 369 nm | 437.9 M⁻¹ cm⁻¹ | O=C(O)C1=CC(=O)N(C(CO)C(=O)O)C(=O)C1 (stereo not shown) [CA-Serine]
22 | 78.6% | 436 nm | 386 nm | 418 M⁻¹ cm⁻¹ | CC1Oc2cc(C(=O)O)cc(=O)n2C1C(=O)O (stereo not shown) [CA-Threonine]
23 | 5% | 445 nm | 386 nm | 14.6 M⁻¹ cm⁻¹ | O=C(O)C1=CC(=O)N(C(CC2=c3ccccc3=NC2)C(=O)O)C(=O)C1 (stereo not shown) [CA-Tryptophan]
24 | 17.5% | 428 nm | 361 nm | 5.3 M⁻¹ cm⁻¹ | CC(C)C(C(=O)O)N1C(=O)C=C(C(=O)O)CC1=O (stereo not shown) [CA-Valine]
25 | 42.1% | 419 nm | 368 nm | 34.6 M⁻¹ cm⁻¹ | O=C(O)C1=CC(=O)N(CCO)C(=O)C1 [CA-ethanolamine]
26 | 22.1% | 422 nm | 355 nm | 4.9 M⁻¹ cm⁻¹ | O=C(O)CCCN1C(=O)C=C(C(=O)O)CC1=O [CA-γ-Aminobutyric acid]
27 | 0.2% | 423 nm | 355 nm | 6.1 M⁻¹ cm⁻¹ | CC(C(=O)O)N1C(=O)CC(C(=O)O)CC1=O (stereo not shown) [TCA-Alanine]
28 | 54.2% | 431 nm | 366 nm | 11.6 M⁻¹ cm⁻¹ | O=C(O)C1CC(=O)N(C(CS)C(=O)O)C(=O)C1 (stereo not shown) [TCA-Cysteine]

Row | SMILES | Φ (quantum yield) | λem (maximum emission wavelength) | λex (maximum excitation wavelength) | ϵ (extinction coefficiency)
29 | N=C(N)NCCCC(C(=O)O)N1C(=O)C=C(C(=O)O)CC1=O (stereo not shown) [CA-Arginine] | 15.5% | 451 nm | 382 nm | 11.6 M⁻¹ cm⁻¹
30 | CCCCCCCN1C(=O)C=C(C(=O)O)CC1=O [CA-Heptylamine] | 13.5% | 424 nm | 356 nm | 4.7 M⁻¹ cm⁻¹
31 | Nc1ccc(N2C(=O)C=C(C(=O)O)CC2=O)cc1 [CA-Phenylenediamine] | 4.5% | 433 nm | 360 nm | 12.1 M⁻¹ cm⁻¹

Same assay, conditions: representative CFDs, Table I

Row | Max. Em. Wavelength | Max. Ex. Wavelength | Quantum Yield | SMILES
32 | 440 nm | 377 nm | 9.2% | NCCN1C(=O)C=C(C(=O)O)CC1=O [CA-EDA]
33 | 434 nm | 357 nm | 39.0% | O=C(O)CN1C(=O)C=C(C(=O)O)CC1=O [CA-Gly]
